Data from patent EP1136472A1, “ARYL- AND HETEROARYLAMIDES OF CARBOALKOXYSULFANILIC ACIDS” (priority 1998, dated 2000).
Converted amounts (≈) assume the structure as drawn. Read-outs that look alike come from different tables or passages of the source.

Columns and labels:
[1] = system: Herpes Simplex virus of the type I (HSV-I /Leningrad/248/88); assay: Antiviral effect on Herpes Simplex virus (cytopathogenic action on Vero cells); format: cell-based; settings: for Quantity of the unchanged cells: number of cells in 100 visual fields
[2] = system: primary culture of human lymphocytes; assay: Interferon-inducing activity in primary culture of human lymphocytes (IFN-α immunoenzyme test); format: cell-based
Procedure: Interferon synthesis induction caused by the claimed compounds was conducted on a primary culture of human lymphocytes (it is these cells in a human organism that are the main producers of interferons). To obtain lymphocyte culture, fresh blood (within 12 hours after sampling) from healthy donors (not of group II) was used. To separate lymphocytes, heparinized blood obtained from healthy donor was centrifuged in a density gradient ficoll-verografin of […] in order to extract a fraction of immunocompetent cells. This fraction was selected and diluted with the nutrient medium RPMI-1640, containing 5% of fetal calf serum, 0.3 mg/ml of L-glutamin, 100 un/ml of penicillin, and 50 µg/ml of streptomycin. The concentration of lymphocytes was considered after dying them with methylene blue and calculation of cell number in a chamber of a hemocytometer. Initial solutions of the claimed compounds were diluted with the nutrient medium RPMI-1640 so that the final concentrations of the compounds, which were obtained after introduction of lymphocyte suspension, constituted the raw: 100 µg/ml, 10 µg/ml, 1 µg/ml. The final concentration of lymphocytes in the induction mixture was 3x10^6 cell/ml.
Control and test samples were incubated for 24 hours at the temperature of 37°C. After incubation, the samples were centrifuged at 2,000 G to deposit cell elements, and IFN-containing supernatant was separate out of the samples; then the supernatant was analyzed for the quantitative content of IFN. Cell deposition was resuspended in the preceding volume of nutrient medium, colored with vital dye trypan blue, and cell number was counted in a chamber of a hemocytometer (as described above) to determine cytotoxic action of the compounds.
Quantitative determination of the content of IFN in control and test samples was conducted using the immunoenzyme test system Pro Con IF2 Plus, that is intended for determination of IFN-α, which is produced by TOO "Protein contour". The solid-phase immunoenzyme method, utilizing horse radish peroxidase as an indicator enzyme, was used to determine the quantity of interferon in the samples. Activity of the bonded peroxidase was measured using an automatic photometer for microplates with a microprocessor at the wavelength of 450 nm.
Based on the obtained results, a calibrating curve was formed, which allows to obtain data expressed in international units (IU) of activity, using the microprocessor of the automatic photometer. The results of the analysis are expressed in IU of activity of IFN per ml in the given induction system, which contains 3x10^6 lymphocyte/ml. Each test and control point was investigated in four parallels.
Controls of immunoenzyme reaction: • 1. Control of DMSO with a nutrient medium. • 2. Control of system components (according to an instruction).
The obtained data were undergone a statistical analysis using t-criterion, and calculation of the confident interval of probability at p=0.05 was carried out. Coincidence between the results obtained in the parallel tests was analyzed.

[3] = system: Mycobacterium tuberculosis H37RV; assay: Antimicrobial action, serial dilution method; format: cell-based; settings: 72-hour cultivation at 37°C
C.trachomatis D323 = assay: Antichlamydial activity in infected cell culture (McCoy and L929); format: cell-based, Chlamydia trachomatis; settings: 100 mg/l; for percentage of cell protection from infection / Number of unchanged cells: 48 hours; for Number of unchanged cells: counted in 100 visual fields
Procedure: The antichlamydial activity of the claimed compounds was studied in respect to C.trachomatis […], which is a standard strain contained in the collection of the department of microbiology of St. Petersburg State Pavlov Medical University. […] Cell cultures McCoy and L929 obtained from the Institute of Cytology of RAS were used in this work. Cells were grown in flasks made of neutral glass in the medium RPMI-1640 containing 10% of fetal calf serum. The test was performed in flat-bottom flasks made of glass (non-toxic), that were supplied with cover glasses. The cells were introduced into the medium in the final concentration of 1x10^6 cell/ml. […] Simultaneously, tested compounds in a final concentration of 100 mg/l were added to the cells. The sample was centrifuged at 2400 G for 60 minutes at a room temperature and incubated at 37°C for 2 hours. […] The samples were doubled using the medium without cycloheximide so as to exclude its effect on the investigated compounds. The samples were incubated for 48 hours in CO2-incubator. The controls included: • 1. Control of cell culture • 2. Control of action of solvents • 3. Control of action of chlamydia in absence of any compounds • 4. […] Control of the tested compounds as to toxicity in respect to the cell culture. Evaluation of the results was carried out by the way of determination of chlamydial cytoplasmatic inclusions (CPI) that was conducted by the method of immunofluorescence (MicroTrack Chlamydia trachomatis Direct Specimen Test), and by the way of determination of chlamydia antigens that was conducted by means of CylaMonoScreen (Russian-British Joint Venture 66 Regent's Parc Road London NW1 7SX). The effect of the action of compound was determined by analysis of the monolayer state and number of cells with CPI when compared with the control (cell culture infected with C.trachomatis […]); in doing so, the number of unchanged cells, that were counted in 100 visual fields obtained using the eyepiece-micrometer, was taken into consideration.

[4] = compound concentration of 100 µg/ml, after 36 hours
[5] = compound concentration of 100 µg/ml, protection of cells from virus as compared to the control of cell culture
[6] = Mycobacterium tuberculosis, H37RV, read-out: MIC

Row | Molecule | Quantity of the unchanged cells [1, 4] | percentage of protection [1, 5] [%] | Content of IFN in induction mixture after 24-hour incubation ([2]; 1 mg/l) | Content of IFN in induction mixture after 24-hour incubation ([2]; 10 mg/l) | Content of IFN in induction mixture after 24-hour incubation ([2]; 100 mg/l) | further results
1 | CCCCOC(=O)Nc1ccc(S(=O)(=O)Nc2ccc(Br)cc2)cc1 [III, Carbobutoxysulfanylic acid (4-bromophenyl)amide] | 5000 | 50 | 1,4 ± 0,2 IU/3x10^4 lymph./ml | 2,6 ± 0,3 IU/3x10^4 lymph./ml | 3,5 ± 0,2 IU/3x10^4 lymph./ml | –
2 | Carboheptoxysulfanylic acid (1,2,4-thiadiazole-2-hexyl-5-yl)amide [XXXIV] | – | – | – | – | – | MIC [3]: 50 µg/mL
3 | CCCCOC(=O)Nc1ccc(S(=O)(=O)Nc2c(Cl)cccc2Cl)cc1 [X, Carbobutoxysulfanylic acid (2,6-dichlorophenyl)amide] | 7000 | 70 | 7 ± 1 IU/3x10^4 lymph./ml | 26 ± 1 IU/3x10^4 lymph./ml | 100 ± 3 IU/3x10^4 lymph./ml | percentage of cell protection from infection (C.trachomatis D323): 50%; Number of unchanged cells (C.trachomatis D323): 4.000
4 | Nc1nc2c(ncn2COCCO)c(=O)[nH]1 [Acyclovir, reference compound] | – | – | – | – | – | percentage of protection ([1]; Acyclovir 10 µg/ml, as compared to the control of cell culture): 80%; Quantity of the unchanged cells ([1]; Acyclovir 10 µg/ml): 8000
5 | CC[C@@H](CO)NCCN[C@@H](CC)CO [Ethambutol] | – | – | – | – | – | MIC [3, 6]: 5 µg/mL (≈ 24.5 µM)
6 | CC1COc2c(N3CCN(C)CC3)c(F)cc3c(=O)c(C(=O)O)cn1c23 (stereo not drawn) [Ofloxacin] | – | – | – | – | – | MIC [3, 6]: 0.5 µg/mL (≈ 1.38 µM)
7 | CCOC(=O)Nc1ccc(S(=O)(=O)Nn2cnnc2)cc1 [XXVI, Carboethoxysulfanylic acid (1,2,4-triazole-4-yl)amide] | – | – | 1,6 ± 0,1 IU/3x10^4 lymph./ml | 2 ± 0,2 IU/3x10^4 lymph./ml | 2,5 ± 0,5 IU/3x10^4 lymph./ml | –
8 | Carbo(2,2,2-trifluorethoxy)-sulfanylic acid (1,2,4-thiadiazole-2-butyl-5-yl)amide [XL] | 7000 | 70 | 1.6 ± 0.1 IU/3x10^4 lymph./ml | 3.6 ± 0.5 IU/3x10^4 lymph./ml | 14 ± 0.2 IU/3x10^4 lymph./ml | –
9 | CCCCCCCOC(=O)Nc1ccc(S(=O)(=O)Nc2ccccc2Cl)cc1 [XXVII, Carboheptoxysulfanylic acid (2-chlorophenyl)amide] | – | – | 1,2 ± 0,1 IU/3x10^4 lymph./ml | 1,5 ± 0,3 IU/3x10^4 lymph./ml | 2 ± 0,3 IU/3x10^4 lymph./ml | –
10 | CCCCCOC(=O)Nc1ccc(S(=O)(=O)Nc2c(Cl)cccc2Cl)cc1 [XIX, Carbopentoxysulfanylic acid (2,6-dichlorophenyl)amide] | 8000 | 80 | – | – | – | –
11 | CCCCOC(=O)Nc1ccc(S(=O)(=O)Nc2ccccc2)cc1 [XIII, Carbobutoxysulfanylic acid phenylamide] | 5000 | 50 | 1,5 ± 0,2 IU/3x10^4 lymph./ml | 1,4 ± 0,1 IU/3x10^4 lymph./ml | 2 ± 0,1 IU/3x10^4 lymph./ml | –
12 | CCCCOC(=O)Nc1ccc(S(=O)(=O)Nc2cc(C)ccc2C)cc1 [XIV, Carbobutoxysulfanylic acid (2,5-dimethyl)amide] | 7000 | 70 | 1,2 ± 0,1 IU/3x10^4 lymph./ml | 1,8 ± 0,2 IU/3x10^4 lymph./ml | 2 ± 0,2 IU/3x10^4 lymph./ml | –
13 | NNC(=O)c1ccncc1 [Isoniazid] | – | – | – | – | – | MIC [3, 6]: 0.1 µg/mL (≈ 0.729 µM)
14 | CCCCCCOC(=O)Nc1ccc(S(=O)(=O)Nc2ccccc2Cl)cc1 [XXVIII, Carbohexoxysulfanylic acid (2-chlorophenyl)amide] | – | – | 1,4 ± 0,1 IU/3x10^4 lymph./ml | 2,3 ± 0,2 IU/3x10^4 lymph./ml | 3 ± 0,1 IU/3x10^4 lymph./ml | –
15 | CCCCCCOC(=O)Nc1ccc(S(=O)(=O)Nc2ccc(Br)cc2)cc1 [V, Carbohexoxysulfanylic acid (4-bromophenyl)amide] | 5000 | 50 | 1,1 ± 0,1 IU/3x10^4 lymph./ml | 1,4 ± 0,1 IU/3x10^4 lymph./ml | 2 ± 0,3 IU/3x10^4 lymph./ml | –
16 | CCCCOC(=O)Nc1ccc(S(=O)(=O)Nc2ccccc2C)cc1 [VIII, Carbobutoxysulfanylic acid (2-toluyl)amide] | 8000 | 80 | – | – | – | –
17 | CCCCOC(=O)Nc1ccc(S(=O)(=O)Nc2cccc(Br)c2)cc1 [XII, Carbobutoxysulfanylic acid (3-bromophenyl)amide] | 5000 | 50 | 1,3 ± 0,2 IU/3x10^4 lymph./ml | 2 ± 0,5 IU/3x10^4 lymph./ml | 2,5 ± 0,6 IU/3x10^4 lymph./ml | percentage of cell protection from infection (C.trachomatis D323): 45%; Number of unchanged cells (C.trachomatis D323): 3.600
18 | CCCCCOC(=O)Nc1ccc(S(=O)(=O)Nc2c(C)n(C)n(-c3ccccc3)c2=O)cc1 [XLI, Carbopentoxysulfanylic acid (1,5-dimethyl-2-phenylpyrazolone-4-yl)-amide] | 7500 | 75 | 5 ± 0.4 IU/3x10^4 lymph./ml | 18.7 ± 0.2 IU/3x10^4 lymph./ml | 69 ± 1 IU/3x10^4 lymph./ml | activity against chlamydia (in words) (C.trachomatis D323): marked biological activity against chlamydia; percentage of cell protection from infection (C.trachomatis D323): 55%; Number of unchanged cells (C.trachomatis D323): 4.400
19 | [H]/N=C(/N)N[C@H]1[C@H](O)[C@@H](O)[C@H](O[C@@H]2O[C@@H](C)[C@](O)(C=O)[C@H]2O[C@@H]2O[C@@H](CO)[C@H](O)[C@@H](O)[C@@H]2NC)[C@@H](N/C(N)=N\[H])[C@@H]1O [Streptomycin] | – | – | – | – | – | MIC [3, 6]: 0.2 µg/mL (≈ 0.344 µM)
20 | CCCCOC(=O)Nc1ccc(S(=O)(=O)Nc2ccccc2Cl)cc1 [IX, Carbobutoxysulfanylic acid (2-chlorophenyl)amide] | 7000 | 70 | 1,5 ± 0,1 IU/3x10^4 lymph./ml | 2 ± 0,1 IU/3x10^4 lymph./ml | 2,5 ± 0,5 IU/3x10^4 lymph./ml | –
